We go through four compounds from patent US20150284385A1, “CERTAIN DIPEPTIDYL PEPTIDASE INHIBITORS” (SHANGHAI FOCHON PHARMACEUTICAL CO LTD, priority 2012, published 2015).

One test addresses T1, DPP-4 (Mus musculus, UniProt P28843).
T1 construct: Blood sample was processed to obtain plasma; from tissue; host or cells: plasma of male ICR mice
Kind of test: Plasma DPP-4 activity in mice after oral dosing. It counts as in vivo, ICR mice. The conditions noted are these: read-out: DPP-4 Relative activity %; for activity at 1 mg/kg: oral 1 mg/kg; for activity at 3 mg/kg: mice plasma, oral 3 mg/kg. The protocol: Some of the exemplary compounds were tested in mice to assess inhibition of DPP-4 activity via plasma DPP-4 activity. Male ICR mice (25-30 g) were used for this study. All the mice were fasted at least 3 hours before study. Mice (n=6/group) received vehicle or at least one of the exemplary compounds by oral gavage. The dosing solutions were 0.15 mg/ml for the 3 mg/kg. Dosing volume was 20 mL/kg of body weight for all doses. The vehicle was distilled water. […] Blood sample was processed to obtain plasma (2000 g, 5 min, 4° C.) within 15 min after sampling.
Plasma was collected and tested by fluoremetry. Before the testing, 80 mM MgCl2 buffer was added into the 5 uL serum samples and pre-incubation for 5 minutes at room temperature, then […] of 0.1 mM substrate Gly-Pro-AMC and 20 μL of buffer were added into them. The fluorescence of the mixture was measured every 3 minutes after mixing (excitation at 380 nm; emission at 460 nm). After 6 times of measurements, a time-fluorescence cure was obtained. The slope of the curve would be the activity of DPP-4 in serum. The DPP-4 activity before administration was 100%. The relative activity of DPP-4 in serum was calculated using the formula below:
Relative DPP-4activity=DPP-4activity after dosing/DPP-4activity before dosing×100%.

The target in the next test is Recombinant human DPP-IV (Homo sapiens, UniProt P27487). Kind of test: DPP-IV assay in vitro (H-Ala-Pro-AFC fluorescence). It counts as biochemical. The note with it: 30 min pre-incubation, H-Ala-Pro-AFC 50 μM. The protocol: DPP-IV Assay Solutions of test compounds in varying concentrations (10^−5 mol/L, 10^−6 mol/L, 10^−7 mol/L, 10^−8 mol/L, 10^−9 mol/L, 10^−10 mol/L, 10^−11 mol/L, and 10^−12 mol/L) were prepared in dimethyl sulfoxide (DMSO) and then diluted into assay buffer comprising: 10 mM Tris-HCl pH 8.0, 0.2 M NaCl, and 0.1% BSA. Recombinant human DPP-IV (7.8 ng/ml final concentration) was added to the dilutions and pre-incubated for 30 mins at room temperature before the reaction was initiated with H-Ala-Pro-AFC (50 μM final concentration). The total volume of the reaction mixture was 100 μl.
Recombinant human DPP-IV, sequence (P27487 whole entry): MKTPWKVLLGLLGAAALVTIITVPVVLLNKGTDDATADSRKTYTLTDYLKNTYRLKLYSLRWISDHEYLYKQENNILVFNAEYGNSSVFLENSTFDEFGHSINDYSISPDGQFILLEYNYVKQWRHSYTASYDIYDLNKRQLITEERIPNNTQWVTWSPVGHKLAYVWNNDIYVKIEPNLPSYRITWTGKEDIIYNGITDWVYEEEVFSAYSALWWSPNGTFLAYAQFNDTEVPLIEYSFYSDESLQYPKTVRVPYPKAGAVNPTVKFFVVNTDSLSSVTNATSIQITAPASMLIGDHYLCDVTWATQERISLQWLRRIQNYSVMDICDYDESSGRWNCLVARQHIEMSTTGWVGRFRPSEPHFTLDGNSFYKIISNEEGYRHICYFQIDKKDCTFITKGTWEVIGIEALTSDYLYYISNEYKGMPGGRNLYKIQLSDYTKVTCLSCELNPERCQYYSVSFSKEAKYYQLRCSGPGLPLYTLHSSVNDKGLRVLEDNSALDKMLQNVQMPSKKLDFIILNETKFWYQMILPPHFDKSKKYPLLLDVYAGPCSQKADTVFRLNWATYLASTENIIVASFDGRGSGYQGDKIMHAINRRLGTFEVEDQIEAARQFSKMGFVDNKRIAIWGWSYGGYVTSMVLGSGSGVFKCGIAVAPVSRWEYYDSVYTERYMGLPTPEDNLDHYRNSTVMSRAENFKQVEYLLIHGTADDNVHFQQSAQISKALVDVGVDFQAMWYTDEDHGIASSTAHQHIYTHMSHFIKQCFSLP
Inhibition constants (IC50) were calculated by GraphPad Prism.

Setting [1] is: Table 4 Test 2, mice plasma, 1 h after dosing.
Where [2] appears, read: Table 4 Test 2, mice plasma, 2 h after dosing.
The mark [3] stands for this setting: Table 4 Test 2, mice plasma, 4 h after dosing.
Where [4] appears, read: Table 4 Test 2, mice plasma, 6 h after dosing.
[5] abbreviates: Table 4 Test 2, mice plasma, 9 h after dosing.
[6] abbreviates: Table 4 Test 2, mice plasma, 24 h after dosing.

In general, IC50 refers to the concentration that inhibits the measured activity by half.

Read-outs that look alike come from different tables or passages of the source.

T1 sequence (P28843 37-760 limits assumed): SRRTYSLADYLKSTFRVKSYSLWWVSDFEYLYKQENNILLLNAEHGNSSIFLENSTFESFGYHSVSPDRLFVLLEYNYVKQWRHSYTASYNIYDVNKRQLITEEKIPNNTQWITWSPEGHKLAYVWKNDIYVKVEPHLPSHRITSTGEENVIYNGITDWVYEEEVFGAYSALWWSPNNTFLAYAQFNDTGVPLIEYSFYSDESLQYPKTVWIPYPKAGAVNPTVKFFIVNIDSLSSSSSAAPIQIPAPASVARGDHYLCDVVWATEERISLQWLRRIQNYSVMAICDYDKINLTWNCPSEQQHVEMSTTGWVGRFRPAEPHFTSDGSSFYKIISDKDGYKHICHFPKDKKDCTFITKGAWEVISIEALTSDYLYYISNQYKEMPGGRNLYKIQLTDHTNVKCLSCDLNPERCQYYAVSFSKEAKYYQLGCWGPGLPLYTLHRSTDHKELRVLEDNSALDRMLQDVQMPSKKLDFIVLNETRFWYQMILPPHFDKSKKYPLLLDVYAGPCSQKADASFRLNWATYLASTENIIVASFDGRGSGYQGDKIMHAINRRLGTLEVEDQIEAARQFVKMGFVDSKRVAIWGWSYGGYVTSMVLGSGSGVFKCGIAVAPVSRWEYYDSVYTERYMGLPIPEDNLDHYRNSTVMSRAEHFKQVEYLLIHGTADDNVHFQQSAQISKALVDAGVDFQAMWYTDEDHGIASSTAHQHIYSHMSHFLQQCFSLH

`Cc1nc(-c2ccn3c4c(nc3c2)C[C@H](c2cc(F)c(F)cc2F)[C@@H](N)C4)no1` [Example 4, (7R,8S)-3-(5-Methyl-1,2,4-oxadiazol-3-yl)-7-(2,4,5-trifluorophenyl)-6,7,8,9-tetrahydrobenzo[4,5]imidazo[1,2-a]pyridin-8-amine]: the activity at 1 mg/kg on DPP-4 (setting [1]) came to 11.5 ± 1.8%; at DPP-4 (setting [2]), 9 ± 1.3%; on DPP-4 (setting [3]), 10.2 ± 1.8%; on DPP-4 (setting [4]), 10.4 ± 1.8%; at DPP-4 (setting [5]), 11.6 ± 1.6%. For the same compound, the activity at 3 mg/kg came out at 24.4 ± 2.8% at DPP-4 (1 h after dosing), 21.7 ± 1.7% at DPP-4 (2 h after dosing), 20.4 ± 2% on DPP-4 (3 h after dosing) and 28.3 ± 2.3% on DPP-4 (5 h after dosing). For the same compound, the concentration for half-maximal inhibition (IC50) at Recombinant human DPP-IV came to 1.9 nM.

In the case of `Cc1nnc(-c2ccn3c4c(nc3c2)C[C@H](c2cc(F)c(F)cc2F)[C@@H](N)C4)o1` [Example 2, (7R,8S)-3-(5-Methyl-1,3,4-oxadiazol-2-yl)-7-(2,4,5-trifluorophenyl)-6,7,8,9-tetrahydrobenzo[4,5]imidazo[1,2-a]pyridin-8-amine], the activity at 1 mg/kg on DPP-4 (setting [1]) was found to be 9.4 ± 1.8%; on DPP-4 (setting [2]), 11.6 ± 2%; at DPP-4 (setting [3]) it was 7.7 ± 2.1%; at DPP-4 (setting [4]), 9.6 ± 1.3%; on DPP-4 (setting [5]), 7.8 ± 2.7%; at DPP-4 (setting [6]) it was 16.4 ± 3.7%. Further, the activity at 3 mg/kg on DPP-4 (1 h after dosing) was determined as 17 ± 3.3%; at DPP-4 (2 h after dosing), 22.6 ± 3.1%; on DPP-4 (3 h after dosing), 22.6 ± 1.1%; on DPP-4 (5 h after dosing), 25.9 ± 3.8%. Further, the IC50 on Recombinant human DPP-IV was found to be 1.2 nM.

For `N[C@H]1Cc2c(nc3cc(-c4ncon4)ccn23)C[C@@H]1c1cc(F)c(F)cc1F` [Example 3, (7R,8S)-3-(1,2,4-Oxadiazol-3-yl)-7-(2,4,5-trifluorophenyl)-6,7,8,9-tetrahydrobenzo[4,5]imidazo[1,2-a]pyridine-8-amine], the activity at 1 mg/kg is 15 ± 0.6% on DPP-4 (setting [1]); 13.6 ± 1.7% on DPP-4 (setting [2]); 8.6 ± 1.1% at DPP-4 (setting [3]); 13.8 ± 2.4% at DPP-4 (setting [4]); 11.8 ± 2.4% at DPP-4 (setting [5]); 15.6 ± 2.4% at DPP-4 (Table 4 Test 2, mice plasma, 12 h after dosing). The activity at 1 mg/kg at DPP-4 (setting [6]) is 38.4 ± 4.3%. In addition, the activity at 3 mg/kg is 16 ± 2.3% at DPP-4 (1 h after dosing), 15 ± 3% at DPP-4 (2 h after dosing), 20 ± 1.8% at DPP-4 (3 h after dosing) and 26.5 ± 3.5% on DPP-4 (5 h after dosing). Further, the IC50 at Recombinant human DPP-IV is 1.7 nM.

As for `Cn1nnc(-c2ccn3c4c(nc3c2)C[C@H](c2cc(F)c(F)cc2F)[C@@H](N)C4)n1` [Example 11, (7R,8S)-3-(2-methyl-2H-tetrazol-5-yl)-7-(2,4,5-trifluorophenyl)-6,7,8,9-tetrahydrobenzo[4,5]imidazo[1,2-a]pyridin-8-amine], the activity at 1 mg/kg on DPP-4 (Table 3, mice plasma, 1 h after dosing) was 9 ± 1.4%; on DPP-4 (Table 3, mice plasma, 2 h after dosing), 11.5 ± 1.1%; on DPP-4 (Table 3, mice plasma, 4 h after dosing), 10.9 ± 2.8%; at DPP-4 (Table 3, mice plasma, 6 h after dosing), 11.5 ± 0.5%; at DPP-4 (Table 3, mice plasma, 9 h after dosing), 10 ± 1.3%; on DPP-4 (Table 3, mice plasma, 12 h after dosing) it was 11 ± 2%. The activity at 1 mg/kg on DPP-4 (Table 3, mice plasma, 24 h after dosing) worked out at 14.5 ± 2.2%; at DPP-4 (Table 4 Test 1, mice plasma, 1 h after dosing) it was 9 ± 1.4%; at DPP-4 (Table 4 Test 1, mice plasma, 2 h after dosing) it was 11.5 ± 1.1%; on DPP-4 (Table 4 Test 1, mice plasma, 4 h after dosing) it was 10.9 ± 2.8%; on DPP-4 (Table 4 Test 1, mice plasma, 6 h after dosing), 11.5 ± 0.5%; on DPP-4 (Table 4 Test 1, mice plasma, 9 h after dosing), 10 ± 1.3%. In addition, the activity at 1 mg/kg at DPP-4 (Table 4 Test 1, mice plasma, 12 h after dosing) is 11 ± 2.2%; at DPP-4 (Table 4 Test 1, mice plasma, 24 h after dosing) it was 14.5 ± 2.2%. Moreover, the IC50 on Recombinant human DPP-IV came to 3 nM.
